Measured values as given in publication PMC9161374 (Science Translational Medicine, 2022).
Values joined by “and” are separate entries in the source; they are usually repeats but may differ in a detail not shown here. Equal values may be shown once.

Legend:
SARS-CoV-2 (B.1) = assay: Anti-SARS-CoV-2 activity in Vero E6 cells (viral yield by qRT-PCR); format: cell-based
[1] = system: SARS-CoV-2 replicon system (pBAC-SARS-CoV-2-Replicon-Luc); assay: microbe, parasite or virus in culture; format: cell-based; conditions: Severe acute respiratory syndrome coronavirus 2, HEK-293T, 60 h
[2] = system: SARS-CoV-2 (Beta, B.1.351); assay: microbe, parasite or virus in culture; format: cell-based; conditions: for % Inhibition: beta
Vero E6 cells = assay: CCK-8 cell viability assay; format: cell-based, African green monkey; conditions: individual replicate values, Fig.S4
Procedure, shortened: (§1)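 Vero E6 cells, 20,000/well, exposed to compound at 0–200 μM (0, 0.01, 0.1, 1, 5, 10, 50, 75, 100, 200 μM) for 48 h; viability read by CCK-8 and expressed as percentage versus drug concentration, mean ± SD.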

[3] = CCK-8 cell viability assay; format: cell-based, African green monkey; conditions: African green monkey; Vero E6 cells, 48 h, CCK8
Procedure, shortened: as §1

[4] = system: SARS-CoV-2 (B.1) in Huh7 cells; assay: Anti-SARS-CoV-2 activity in Huh7 cells (viral yield by qRT-PCR); format: cell-based; conditions: B.1, MOI 0.05, 48 h
[5] = system: SARS-CoV-2 (Delta, B.1.617.2); assay: microbe, parasite or virus in culture; format: cell-based; conditions: for % Inhibition: delta

For `CC(C)CC(=O)OC[C@H]1O[C@@](C#N)(c2ccc3c(N)ncnn23)[C@H](O)[C@@H]1O` [ATV017], the “% Inhibition” value (SARS-CoV-2 (B.1); 0.1 μM, replicates, sheet Fig.S3) was 0%, the “% Inhibition” value (SARS-CoV-2 (B.1); 0.5 μM, replicates, sheet Fig.S3) was 0% and the “% Inhibition” value (SARS-CoV-2 (B.1); 1 μM, replicates, sheet Fig.S3) was 65.5016%. For the same compound, the “% Inhibition” value (SARS-CoV-2 (B.1); 2 μM, replicates, sheet Fig.S3) was 89.9686%, the “% Inhibition” value (SARS-CoV-2 (B.1); 5 μM, replicates, sheet Fig.S3) was 91.0527% and the “% Inhibition” value (SARS-CoV-2 (B.1); 10 μM, replicates, sheet Fig.S3) was 91.8254%. The “% Inhibition” value (SARS-CoV-2 (B.1); B.1, 0.01 uM, Vero E6, replicates) was 0%, the “% Inhibition” value (SARS-CoV-2 (B.1); B.1, 0.1 uM, Vero E6, replicates) was 0% and the “% Inhibition” value (SARS-CoV-2 (B.1); B.1, 0.25 uM, Vero E6, replicates) was 0%. The “% Inhibition” value (SARS-CoV-2 (B.1); B.1, 0.5 uM, Vero E6, replicates) was 0%, the “% Inhibition” value (SARS-CoV-2 (B.1); B.1, 1 uM, Vero E6, replicates) was 0% and the “% Inhibition” value (SARS-CoV-2 (B.1); B.1, 5 uM, Vero E6, replicates, 5 µM) was 99.7611%. For the same compound, the “% Inhibition” value (SARS-CoV-2 (B.1); B.1, 10 uM, Vero E6, replicates, 10 µM) was 99.9908%, the “% Inhibition” value (SARS-CoV-2 (B.1); B.1, 50 uM, Vero E6, replicates, 50 µM) was 99.9887% and the inhibition at 0.1 µM (SARS-CoV-2 (B.1); Severe acute respiratory syndrome coronavirus 2, Vero C1008, 0.1 μM, replicates, sheet Fig.S3) was 0%. For the same compound, the inhibition at 0.5 µM (SARS-CoV-2 (B.1); Severe acute respiratory syndrome coronavirus 2, Vero C1008, 0.5 μM, replicates, sheet Fig.S3) was 0%, the inhibition at 1 µM (SARS-CoV-2 (B.1); Severe acute respiratory syndrome coronavirus 2, Vero C1008, 1 μM, replicates, sheet Fig.S3) was 62.2% and the inhibition at 2 µM (SARS-CoV-2 (B.1); Severe acute respiratory syndrome coronavirus 2, Vero C1008, 2 μM, replicates, sheet Fig.S3) was 89.2%. For the same compound, the inhibition at 5 µM (SARS-CoV-2 (B.1); Severe acute respiratory syndrome coronavirus 2, Vero C1008, 5 μM, replicates, sheet Fig.S3) was 92.3%, the inhibition at 10 µM (SARS-CoV-2 (B.1); Severe acute respiratory syndrome coronavirus 2, Vero C1008, 10 μM, replicates, sheet Fig.S3) was 93.6% and the inhibition at 0.01 µM (SARS-CoV-2 (B.1); Severe acute respiratory syndrome coronavirus 2, Vero C1008, B.1, 0.01 uM, Vero E6, replicates) was 0%. The inhibition at 0.1 µM (SARS-CoV-2 (B.1); Severe acute respiratory syndrome coronavirus 2, Vero C1008, B.1, 0.1 uM, Vero E6, replicates) was 0%, the inhibition at 0.25 µM (SARS-CoV-2 (B.1); Severe acute respiratory syndrome coronavirus 2, Vero C1008, B.1, 0.25 uM, Vero E6, replicates) was 0% and the inhibition at 0.5 µM (SARS-CoV-2 (B.1); Severe acute respiratory syndrome coronavirus 2, Vero C1008, B.1, 0.5 uM, Vero E6, replicates) was 0%. The inhibition at 1 µM (SARS-CoV-2 (B.1); Severe acute respiratory syndrome coronavirus 2, Vero C1008, B.1, 1 uM, Vero E6, replicates) was 0%, the inhibition at 5 µM (SARS-CoV-2 (B.1); Severe acute respiratory syndrome coronavirus 2, Vero C1008, B.1, 5 uM, Vero E6, replicates) was 99.6% and the inhibition at 10 µM (SARS-CoV-2 (B.1); Severe acute respiratory syndrome coronavirus 2, Vero C1008, B.1, 10 uM, Vero E6, replicates) was 99.9%. It also gave an inhibition at 50 µM (SARS-CoV-2 (B.1); Severe acute respiratory syndrome coronavirus 2, Vero C1008, B.1, 50 uM, Vero E6, replicates) of 99.9%, an EC90 (SARS-CoV-2 (B.1); Severe acute respiratory syndrome coronavirus 2, Vero C1008, read-out: EC90 (Confidence 95%), Vero-E6, B.1) of 2480 nM and an EC50 (SARS-CoV-2 (B.1); Severe acute respiratory syndrome coronavirus 2, Vero C1008, MOI 0.05, 48 h) of 2190 nM. The EC50 ([1]; read-out: EC50 (Confidence 95%), replicon) was 433 nM, the EC90 ([1]; read-out: EC90 (Confidence 95%), replicon) was 576 nM and the EC50 ([2]; Severe acute respiratory syndrome coronavirus 2, Vero C1008, 48 h, read-out: EC50 in Vero E6 cells, SARS-CoV-2 (Beta, B.1.351)) was 2850 nM. The inhibition at 0.01 µM ([2]; Severe acute respiratory syndrome coronavirus 2, Vero C1008, beta, 0.01 uM, Vero E6, replicates) was 0%, the inhibition at 0.1 µM ([2]; Severe acute respiratory syndrome coronavirus 2, Vero C1008, beta, 0.1 uM, Vero E6, replicates) was 0% and the inhibition at 0.25 µM ([2]; Severe acute respiratory syndrome coronavirus 2, Vero C1008, beta, 0.25 uM, Vero E6, replicates) was 0%. For the same compound, the inhibition at 0.5 µM ([2]; Severe acute respiratory syndrome coronavirus 2, Vero C1008, beta, 0.5 uM, Vero E6, replicates) was 0%, the inhibition at 1 µM ([2]; Severe acute respiratory syndrome coronavirus 2, Vero C1008, beta, 1 uM, Vero E6, replicates) was 0% and the inhibition at 5 µM ([2]; Severe acute respiratory syndrome coronavirus 2, Vero C1008, beta, 5 uM, Vero E6, replicates) was 99.7%. The inhibition at 10 µM ([2]; Severe acute respiratory syndrome coronavirus 2, Vero C1008, beta, 10 uM, Vero E6, replicates) was 99.9%, the EC90 ([2]; Severe acute respiratory syndrome coronavirus 2, Vero C1008, read-out: EC90 (Confidence 95%), Vero-E6, Beta B.1.351) was 3400 nM and the “% Inhibition” value ([2]; 0.01 uM, Vero E6, replicates) was 0%. The “% Inhibition” value ([2]; 0.1 uM, Vero E6, replicates) was 0%, the “% Inhibition” value ([2]; 0.25 uM, Vero E6, replicates) was 0% and the “% Inhibition” value ([2]; 0.5 uM, Vero E6, replicates) was 0%. The “% Inhibition” value ([2]; 1 uM, Vero E6, replicates) was 0%, the “% Inhibition” value ([2]; 2 uM, Vero E6, replicates) was 6.056% and 0% and the “% Inhibition” value ([2]; 5 uM, Vero E6, replicates) was 99.5481%. The “% Inhibition” value ([2]; 10 uM, Vero E6, replicates) was 99.9499%, the “% Inhibition” value ([2]; 50 uM, Vero E6, replicates) was 99.982% and the “cell viability (% of control)” value (Vero E6 cells; 1 μM compound, 1 µM) was 88.7524 % of control and 100.803 % of control and 120.919 % of control. The “cell viability (% of control)” value (Vero E6 cells; 2 μM compound, 2 µM) was 88.0108 % of control and 98.9031 % of control and 128.104 % of control, the “cell viability (% of control)” value (Vero E6 cells; 5 μM compound, 5 µM) was 90.8382 % of control and 109.656 % of control and 135.798 % of control and the “cell viability (% of control)” value (Vero E6 cells; 10 μM compound, 10 µM) was 94.2217 % of control and 115.404 % of control and 120.363 % of control. For the same compound, the “cell viability (% of control)” value (Vero E6 cells; 20 μM compound, 20 µM) was 80.7802 % of control and 92.136 % of control and 131.024 % of control, the “cell viability (% of control)” value (Vero E6 cells; 50 μM compound, 50 µM) was 71.9737 % of control and 85.3225 % of control and 97.3272 % of control and the CC50 at 48 h [3] was over 50000 nM. The EC50 ([4]; Severe acute respiratory syndrome coronavirus 2, Huh-7, read-out: EC50 (Confidence 95%) in Huh7 cells) was 905 nM, the EC90 ([4]; Severe acute respiratory syndrome coronavirus 2, Huh-7, read-out: EC90 (Confidence 95%) in Huh7 cells) was 1170 nM and the EC50 ([5]; Severe acute respiratory syndrome coronavirus 2, Vero C1008, 48 h, read-out: EC50 in Vero E6 cells, SARS-CoV-2 (Delta, B.1.617.2)) was 428 nM. The inhibition at 0.01 µM ([5]; Severe acute respiratory syndrome coronavirus 2, Vero C1008, delta, 0.01 uM, Vero E6, replicates) was 0%, the inhibition at 0.1 µM ([5]; Severe acute respiratory syndrome coronavirus 2, Vero C1008, delta, 0.1 uM, Vero E6, replicates) was 0% and the inhibition at 0.25 µM ([5]; Severe acute respiratory syndrome coronavirus 2, Vero C1008, delta, 0.25 uM, Vero E6, replicates) was 0%. For the same compound, the inhibition at 0.5 µM ([5]; Severe acute respiratory syndrome coronavirus 2, Vero C1008, delta, 0.5 uM, Vero E6, replicates) was 82.8%, the inhibition at 1 µM ([5]; Severe acute respiratory syndrome coronavirus 2, Vero C1008, delta, 1 uM, Vero E6, replicates) was 90.3% and the inhibition at 2 µM ([5]; Severe acute respiratory syndrome coronavirus 2, Vero C1008, delta, 2 uM, Vero E6, replicates) was 94.4%. It also gave an inhibition at 5 µM ([5]; Severe acute respiratory syndrome coronavirus 2, Vero C1008, delta, 5 uM, Vero E6, replicates) of 93.9%, an inhibition at 10 µM ([5]; Severe acute respiratory syndrome coronavirus 2, Vero C1008, delta, 10 uM, Vero E6, replicates) of 100% and an EC90 ([5]; Severe acute respiratory syndrome coronavirus 2, Vero C1008, read-out: EC90 (Confidence 95%), Vero-E6, Delta B.1.617.2) of 516 nM. For the same compound, the “% Inhibition” value ([5]; 0.01 uM, Vero E6, replicates) was 0%, the “% Inhibition” value ([5]; 0.1 uM, Vero E6, replicates) was 0% and the “% Inhibition” value ([5]; 0.25 uM, Vero E6, replicates) was 0%. The “% Inhibition” value ([5]; 0.5 uM, Vero E6, replicates) was 80.6558%, the “% Inhibition” value ([5]; 1 uM, Vero E6, replicates) was 88.2825% and the “% Inhibition” value ([5]; 2 uM, Vero E6, replicates) was 91.1914%. The “% Inhibition” value ([5]; 5 uM, Vero E6, replicates) was 90.8502%, the “% Inhibition” value ([5]; 10 uM, Vero E6, replicates) was 99.8554% and the “% Inhibition” value ([5]; 50 uM, Vero E6, replicates) was 99.5879%.
